Results on 86 compounds are retold here after a melting point compilation (Tetko et al.; mined from patent text by program, amines drawn as free bases though some values may be those of a salt).

A value given as a limit tells only on which side of the number the result lay.

A word on the melting point: it is the temperature of the solid-liquid transition.

As to `CCOc1cc(NC(C)=O)c([N+](=O)[O-])cc1C(=O)OC`, the melting point was found to be 110 °C.
Under `CC(C)(O)CCCCCc1ccc(C=Cc2ccc(CO)c(CO)c2)cc1` stands 112 to 114 °C; under `Cc1ccc(-c2ccc(S(=O)(=O)N3c4ccccc4CC3C(=O)NCCOc3ccc(CC(=O)O)cc3)cc2C(F)(F)F)cc1` (stereo unspecified), 92 °C; under `COc1ccc2c3c(c(=O)oc2c1)CN(Cc1ccc(C)cc1)CC3`, 147 to 149 °C.
Under `CC(C)(C)C(=O)C(Oc1ccccc1)C(=O)Nc1ccc(Cl)cc1Cl` (stereo unspecified) stands 112 to 114 °C.
Under `CC(C)Cn1c(CO)nc2c(N)nc3c(c21)CCCC3` stands 226 °C; under `CCOC(=O)C(N)C=CCP(=O)(O)O` (stereo unspecified), 167 to 168 °C; under `CCOC(=O)c1cc2c(C)ccc3c2n1CCC3=O`, 103 to 104 °C.
`CCOC(=O)C1=C(N)NC(C)=CC1c1ccc(OC)cc1` (stereo unspecified) registered a melting point of 160 to 161 °C.
Under `COc1ccc(-c2cccc(NC(N)=O)c2)cc1OC1CCCC1` stands 174 to 175 °C; under `Cc1csc(C(O)(c2nccs2)C(F)(F)F)n1` (stereo unspecified), 89 to 90 °C; under `COc1ccc(Cl)cc1C(=O)Nc1ccc(C(F)(F)F)cc1`, 132 °C.
The same measure for `CCCN(CCCCNc1ncc(Cc2ccncc2)c(=O)[nH]1)c1ccccn1`: 58 to 60 °C; for `OCCSc1nc(-c2ccccc2)c(-c2ccccc2)s1`: 77 to 79 °C; for `CS(=O)(=O)OCC(O)(CC(Cl)(Cl)Cl)c1ccccc1` (stereo unspecified): 128 to 130 °C.
The same measure for `O=C(O)c1ccccc1Nc1ccc(-c2ccc(Cl)c(Cl)c2)cc1`: over 220 °C; for `O=C(O)COc1ccc(S(=O)(=O)C(Br)(Br)Br)cc1`: 238 to 246 °C; for `O=C1NC(=O)C(c2c3n(c4ccccc24)CCC(CO)C3)=C1c1coc2ccccc12` (stereo unspecified): 246 to 248 °C.
The compound `CNC(=C[N+](=O)[O-])NCCSCc1csc(CN2CCCCC2)c1` returned a melting point of 101 to 103 °C.
Under `CC(C(=O)O)c1ccc2nc3ccc(S(C)(=O)=O)cn3c(=O)c2c1` (stereo unspecified) stands 240 °C; under `Cn1nc(-c2cc(C(=O)O)c(Cl)cc2F)c(Cl)c1C(F)(F)F`, 179 to 181 °C; under `CS(=O)(=O)CC(=O)c1ccc(NS(C)(=O)=O)c(Oc2ccc(F)cc2F)c1`, 162 to 163 °C.
Consider `C=CCn1cc(Cl)cnc1=O`, for which the melting point lay in the range of 130 to 131 °C.
Under `CC1Cc2cc3c(cc2C(c2ccc([N+](=O)[O-])cc2)=NN1C(=O)NCCCl)OCO3` (stereo unspecified) stands 222 to 223 °C; under `CCOC(=O)Cc1c(C)n(CCCc2ccccc2)c2cccc(OCc3csc(-c4ccccc4)n3)c12`, 90 to 94 °C.
Under `Cc1ccccc1CNC(=S)c1ccc2c(c1)N(C(C)CN1CCCC1)c1ccccc1S2` (racemic) stands 110 °C; under `O=C(CBr)Cc1c(F)cccc1Cl`, 47 °C; under `CN1C(C)(C)CC(NC(=O)c2ccc(-c3nc4cc(Cl)c(Cl)cc4[nH]3)c(O)c2)CC1(C)C`, over 250 °C.
The same measure for `O=Cn1cc(Cl)c(-c2cccc(Cl)c2Cl)c1`: 130 to 131 °C.
On to `CC(=O)N1CCC(F)(Cc2c3c(nn2C)c(N)nc2ccccc23)CC1`, for which the melting point fell in the range of 241 to 243 °C.
`CCOC(=O)C1=C(C)Nc2snc(CCCOCc3ccccc3)c2C1c1cccc([N+](=O)[O-])c1` (stereo unspecified) gave a melting point of 109 to 110 °C.
`COc1cn(-c2ccc(N3CCC(F)(F)C3)cc2F)nc(-c2ccnn2-c2ccccc2)c1=O`: the melting point is 195 to 197 °C.
On to `CN(C(=O)N[C@@H](Cc1ccc(Oc2nccc3ccncc23)cc1)C(=O)O)c1ccccc1Cc1ccccc1`, for which the melting point came to 128 °C.
The same measure for `CCOC(=O)C(CCN1CCN(c2ncc(F)cn2)CC1)C(=O)c1ccc(F)cc1` (stereo unspecified): 95 to 96 °C.
Compound `CCOC(=O)CCCOc1cccc2c1SCCC2` yielded a melting point of 31 °C.
The same measure for `O=C(Nc1nccc2ccc(CO)cc12)c1ccccc1`: 190 to 193 °C.
The same measure for `CC(=O)OC1CC2CCC3C(CCC4(C)C3CC(N3CCCCC3)C4OC(C)=O)C2(C)CC1N1CCOCC1` (stereo unspecified): 119 to 128 °C.
The same measure for `CCC1c2nc[nH]c2CCN1C(=O)NC(C)C` (stereo unspecified): 170 °C; for `CC(=O)Cc1ccc(NC(=O)/C=C/c2cnn(C)c2-c2ccc(F)cc2)cc1`: 186 to 187 °C.
`O=C(C=Cc1ccc(Cl)c(C(F)(F)F)c1)NN1CC(=O)NC1=O` registered a melting point of 270 to 273 °C.
The same measure for `COc1cccc2c1CCN(c1nc(C)[nH]c(=O)c1[N+](=O)[O-])CC2`: over 200 °C.
Under `CC(C)(CO)CCCCC(CCCCC(C)(C)CO)(C(=O)O)C(=O)O` stands 178 to 180 °C; under `COc1c(C(C)(C)C)cc(P(c2cc(C(C)(C)C)c(OC)c(C(C)(C)C)c2)c2ccccc2P2c3ccccc3CC2C(C)C)cc1C(C)(C)C` (single isomer, unassigned; (+)), 69 to 70 °C; under `C=CC(c1ccccc1)c1cc(C)c2c(c1O)C(=NO)CC2` (stereo unspecified), 146 °C.
Under `CCCCS(=O)(=O)NC(=O)/C=C/c1c(C)nn(C)c1-n1ccc2cc(Cl)cnc21` stands 245 to 248 °C; under `Nc1c(-c2ccc(Cl)cc2)nc2ccc(F)cc2c1C(=O)O`, 241 to 243 °C.
For the compound `CCOc1ccc(C(=O)c2ccc(OC)c(Cl)c2Cl)c(F)c1`, the melting point lay in the range of 94 to 96 °C.
`COc1cn(-c2ccc(C#CC3CC3)cc2F)nc(-c2ccnn2-c2ccccc2)c1=O` came in with a melting point of 145 to 146 °C.
The compound `Cc1cccc(S(=O)(=O)n2cccn2)c1C#N` registered a melting point of 99 to 104 °C.
`Nc1nnc(-c2cc3c(Oc4ccc(Cl)cc4)cncc3s2)[nH]1` returned a melting point of over 270 °C.
The same measure for `COc1c(C2CCN(CCCCOc3ccc(-c4ccc(C#N)cc4)cc3)CC2)ccc2ccccc12`: 142 °C; for `Cc1nc2cnc(Nc3ccc(N4CCNCC4)cn3)nc2n(C2CCCC2)c1=O`: 221 to 223 °C; for `COc1ccc(CCNC(=O)C(=O)NCc2ccc(NC(C)=O)cc2)cc1OC1CCCC1`: 235 to 236 °C.
As to `CN1CC(COC2c3ccccc3CCn3cc(I)nc32)C1` (stereo unspecified), the melting point was 100 °C.
The same measure for `O=CNc1nc2ccc([N+](=O)[O-])cc2s1`: 248 to 251 °C; for `CC(C)(C)C(=O)Nc1ccc(C=CC(=O)N2CCc3c([nH]c4ccccc34)C2c2ccc3c(c2)OCO3)cc1` (stereo unspecified): 172 to 174 °C.
The same measure for `CC(C)(C)OC(=O)Nc1nc(C(=CC(C)(C)C(=O)OCc2ccccc2)C(=O)O)cs1`: 175 to 177 °C; for `CSc1cc(C(C)(C)C)c(O)c(C(C)(C)C)c1`: 69 to 71 °C; for `CC(=O)N[C@@H](CS)C(=O)NCCSC(=O)c1ccccc1`: 128 to 130 °C.
Under `CCN1Cc2cccc3scc(c23)S1(=O)=O` stands 156 °C; under `CCc1cccc(C)c1CNc1cc(C(=O)O)nc2c1nc(C)n2C`, 235 to 238 °C; under `O=C1Nc2ccc(F)cc2C1c1ncnc2nn(C3CCCCC3)cc12` (stereo unspecified), 294 to 298 °C.
`CC1CC(=O)c2ccc(C(C)C(=O)O)cc2C1` (stereo unspecified) returned a melting point of 196 to 199 °C.
The same measure for `COc1ccc(-c2nc(N)c(C#N)nc2-c2ccc(=O)n(C(C)C)c2)cc1`: 244 °C.
The same measure for `CSc1nnc(Sc2cc(C(C)(C)C)c(O)c(C(C)(C)C)c2)s1`: 144 to 145 °C.
Consider `CC(C)(C)CN1C(=O)[C@@H](CC=O)O[C@H](c2ccccc2Cl)c2cc(Cl)ccc21` (relative stereo), for which the melting point was 173 to 176 °C.
Under `CNC(=O)c1cc(C#N)cc(C)c1NC(=O)c1cc(C(F)(F)F)nn1-c1ncccc1Cl` stands 214 to 216 °C.
Turning to `NC1=NN(c2nc3ccccc3s2)C(c2ccccc2)C1` (stereo unspecified), the melting point lay in the range of 270 to 272 °C.
The same measure for `COc1ccc(-c2nc3cc(Cl)c(Cl)cc3n2C(=O)OCc2ccccc2)cc1[N+](=O)[O-]`: 212 to 214 °C.
The compound `N#Cc1cc([N+](=O)[O-])cc(C#N)c1O` gave a melting point of 228 to 231 °C.
`CCS(=O)(=O)NNC(=O)NNS(=O)(=O)CC` had a melting point of 195 °C.
Under `C=C(C)CO[C@H]1[C@H](C)OC(=O)[C@@H](NC(=O)c2nccc(OC)c2OCc2ccccc2)COC(=O)[C@@H]1Cc1ccccc1` stands 50 to 52 °C; under `CC(=O)N1N=C(c2ccc([N+](=O)[O-])cc2)c2cc3c(cc2C=C1C)OCCOC3`, 202 to 204 °C; under `CC(C)OC(=O)C=Cc1cc(-n2c(=O)cc(C(F)(F)F)n(C)c2=O)c(F)cc1Cl`, 137 to 139 °C.
Under `Fc1ccc(-c2cn3c(n2)SCC3)cc1` stands 116 to 118 °C; under `Cc1cc(-c2cc3c(cc2F)c(=O)c(C(=O)O)cn3C2CC2)cc(CO)n1`, 270 to 272 °C; under `CCc1c(-c2ccccc2)nc(C(C)C)c(C#CI)c1-c1ccc(F)cc1`, 117 to 119 °C.
Under `COc1ccc(-c2nc(C(O)C(F)(F)F)[nH]c2-c2ccc(OC)cc2)cc1` (stereo unspecified) stands 242 to 245 °C; under `CCCOC(=O)Cc1ccc(N[C@@H](CCC(N)=O)C(=O)O)cc1`, 178 to 179 °C.
For `Cc1c(CCN(C)C(=O)OC(C)(C)C)c2cc(S(=O)(=O)c3cccc4ccccc34)ccc2n1C`, the melting point is 176 to 178 °C.
The same measure for `Cc1nc2c(OCc3ccccc3)cc(C(=O)N(C)C)cc2n1C`: 159 to 160 °C; for `COc1cc2c(cc1OC)CN(c1nc(N)c3cc(OC)c(OC)cc3n1)CCC2`: 122 to 124 °C; for `N#Cc1ccc(C(=O)c2ccccc2S)cc1`: 98 to 100 °C.
Under `O=C(Nc1cc(Cl)c(O)c(Cl)c1)c1ccc(F)cc1O` stands 223 to 224 °C; under `CC(C)C1Oc2ccccc2NC1=O` (stereo unspecified), 118 to 119 °C.
In turn, `CC1(C)CCC(C)(C)c2cc(S(=O)Cc3ccc(C(=O)O)cc3)ccc21` (stereo unspecified) showed a melting point of 198 to 200 °C.
